Square brackets hold non-standard residues; d marks the D form. Peptide text beside a SMILES is read from it. * marks the point of attachment. dPhe(4-NHCONH2) = NC(=O)Nc1ccc(C[C@@H](N)C(=O)O)cc1; Dihydroorotyl(S) = O=C1C[C@@H](C(=O)*)NC(=O)N1; dPhe(4-Cl) = N[C@H](Cc1ccc(Cl)cc1)C(=O)O; Phe(4-NH2) = Nc1ccc(C[C@H](N)C(=O)O)cc1; d2Nal = N[C@H](Cc1ccc2ccccc2c1)C(=O)O; Lys(iPr) = CC(C)NCCCC[C@H](N)C(=O)O; d3Pal = N[C@H](Cc1cccnc1)C(=O)O
Assays:
patients with BPH [1] = test: Prostate volume by transrectal ultrasound, clinical trial; type: in vivo, men
Excerpt: (§1) 2] Efficacy Endpoints—the measured Peak Urinary Flow, Post-void Residual Volume, and Prostate Volume.
(§2) After the initial 6-week treatment period of the exploratory study had been completed, a 12-month follow-up period looking at long-term efficacy commenced. Interim data of the main efficacy variables (IPSS, IPSS Global QoL, prostate volume, urinary flow, and post-void residual volume—measured as set out below) after 6 months' follow-up are also presented herein Table 1, 2, 3 FIG. 1b), together with some IPSS data at 9 and 12 months (FIG. 1b).
The prostate volume was measured by transrectal ultrasound with the patient in lateral position. The prostatic gland was sonicated from two directions perpendicular to one another resulting in three cursor positions set by the urologist. The volume was calculated automatically. The investigations were performed by urologists by methods known in the art.

patients with BPH [2] = test: Post-void residual volume by transabdominal ultrasound, clinical trial; type: in vivo, men; details: for Mean post-void residual volume: all treatment groups
Experimental: as §1
The Post-void Residual Volume (PVR) was evaluated by transabdominal ultrasound. The urine bladder was sonicated from two directions perpendicular to one another resulting in three cursor positions set by the urologist. The volume was calculated automatically. The investigations were performed by urologists by methods known in the art.

[3] = in vivo
patients with BPH [4] = test: Peak (maximal) urinary flow by flowmetry, clinical trial; type: in vivo, men; details: for Mean maximal urinary flow: baseline
Experimental: as §1
Peak urinary flow was determined by flowmetry using the Uropower device (Wiest, World of Medicine AG, Germany). The device fulfilled the International Continence Society standards for maximum urinary flow. The measurement of urinary flow was done in sitting position.
The Qmax is the maximal urinary flow rate. It is the traditional parameter used in BPH trials and is a good indicator of degree of bladder outlet obstruction (BOO).

patients with BPH [5] = test: International Prostate Symptom Score (IPSS) questionnaire, clinical trial in BPH patients; type: in vivo, men; details: for Improvements in mean sum of IPSS scores: 9 and 12 months follow-up; for Mean IPSS score: Baseline of 6 month follow up patients
Experimental: For each patient, the following parameters were measured or assessed (using the methods discussed below), at time points of screening (e.g. −7 days) day 0 (“baseline”), day 14, day 28 and day 42:
as §2
The IPSS was developed in 1991 by the American Urological Association to assess the severity of urinary symptoms related to BPH (Barry, M. J., et al., The American Urological Association symptom index for benign prostatic hyperplasia. The Measurement Committee of the American Urological Association. J Urol, 1992. 148(5): p. 1549-57; discussion 1564). It has been widely used in clinical studies, has undergone extensive validation and its psychometric properties are well documented in both the original version (containing a 1-month recall) as well as the ‘acute’ version used in this study (containing a one-week recall). The WHO has recommended the use of this instrument for the evaluation of BPH and it is considered to be the internationally accepted, standard questionnaire for assessing lower urinary tract symptoms.
The patients were asked to complete the IPSS questionnaire to evaluate their urinary symptoms. The IPSS is a patient-administered questionnaire containing seven items to evaluate symptoms of urinary obstruction (incomplete emptying, frequency, hesitancy, urgency, weak stream, straining, nocturia) over the preceding week. Each urinary symptom question is assigned points from 0 to 5 indicating increasing severity of the particular symptom. The total score can therefore range from 0 to 35 (0-7: mildly symptomatic; 8-19: moderately symptomatic; 20-35: severely symptomatic). A reduction in score over the treatment is indicative of improvement.

[6] = Month 6 follow-up, 32 mg group, n=7
[7] = Month 6 follow-up, 64 mg group, n=4
[8] = Month 6 follow-up, 16+16 mg group, n=6
[9] = Month 6 follow-up, 32+32 mg group, n=7
[10] = Day 42, all groups, patients violating the maximal uroflow inclusion criterion excluded

## CC(=O)N[C@H](Cc1ccc2ccccc2c1)C(=O)N[C@H](Cc1ccc(Cl)cc1)C(=O)N[C@H](Cc1cccnc1)C(=O)N[C@@H](CO)C(=O)N[C@@H](Cc1ccc(NC(=O)[C@@H]2CC(=O)NC(=O)N2)cc1)C(=O)N[C@H](Cc1ccc(NC(N)=O)cc1)C(=O)N[C@@H](CC(C)C)C(=O)N[C@@H](CCCCNC(C)C)C(=O)N1CCC[C@H]1C(=O)N[C@H](C)C(N)=O [Degarelix, D-Alaninamide, N-acetyl-3-(2-naphthalenyl)-D-alanyl-4-chloro-D-phenylalanyl-3-(3-pyridinyl)-D-alanyl-L-seryl-4-[[[(4S)-hexahydro-2,6-dioxo-4-pyrimidinyl]carbonyl]amino]-L-phenylalanyl-4-[(aminocarbonyl)amino]-D-phenylalanyl-L leucyl-N6-(1-methylethyl)-L-lysyl-L-prolyl] (Ac-[d2Nal][dPhe(4-Cl)][d3Pal]S[Phe(4-NH2)](Dihydroorotyl(S))[dPhe(4-NHCONH2)]L[Lys(iPr)]P[dA]-NH2)
Patients with BPH [1]; Baseline of 6-month follow-up patients, 32 mg group, n=7
  Mean (SD) Prostate Volume: 45.9 (n = 7) mL
Patients with BPH [1]; Baseline of 6-month follow-up patients, 64 mg group, n=4
  Mean (SD) Prostate Volume: 38.7 (n = 4) mL
Patients with BPH [1]; Baseline of 6-month follow-up patients, 16+16 mg group, n=6
  Mean (SD) Prostate Volume: 40.8 (n = 6) mL
Patients with BPH [1]; Baseline of 6-month follow-up patients, 32+32 mg group, n=7
  Mean (SD) Prostate Volume: 37.1 (n = 7) mL
Patients with BPH [1]; Baseline, 32 mg group, N=12
  Mean (SD) Prostate Volume: 48.7 (21.0) mL
Patients with BPH [1]; Baseline, 64 mg group, N=13
  Mean (SD) Prostate Volume: 38.9 (9.0) mL
Patients with BPH [1]; Baseline, 16+16 mg group, N=13
  Mean (SD) Prostate Volume: 42.0 (12.1) mL
Patients with BPH [1]; Baseline, 32+32 mg group, N=12
  Mean (SD) Prostate Volume: 38.1 (7.1) mL
Patients with BPH [1]; Day 42, 32 mg group
  Prostate Volume Change from Baseline: −13.9 (14.7) mL
  Prostate Volume Percentage Change from Baseline: −25.1 (18.0) %
Patients with BPH [1]; Day 42, 64 mg group
  Prostate Volume Change from Baseline: −8.2 (10.2) mL
  Prostate Volume Percentage Change from Baseline: −19.7 (23.2) %
Patients with BPH [1]; Day 42, 16+16 mg group
  Prostate Volume Change from Baseline: −7.5 (7.7) mL
  Prostate Volume Percentage Change from Baseline: −17.0 (16.7) %
Patients with BPH [1]; Day 42, 32+32 mg group
  Prostate Volume Change from Baseline: −9.4 (9.3) mL
  Prostate Volume Percentage Change from Baseline: −23.5 (20.9) %
Patients with BPH [1]; [6]
  Prostate Volume Change from Baseline: −11.6 (5.1) mL
  Prostate Volume Percentage Change from Baseline: −25.6 (8.0) %
Patients with BPH [1]; [7]
  Prostate Volume Change from Baseline: −9.7 (10.4) mL
  Prostate Volume Percentage Change from Baseline: −21.5 (20.6) %
Patients with BPH [1]; [8]
  Prostate Volume Change from Baseline: −11.2 (4.4) mL
  Prostate Volume Percentage Change from Baseline: −27.8 (8.7) %
Patients with BPH [1]; [9]
  Prostate Volume Change from Baseline: −10.6 (8.8) mL
  Prostate Volume Percentage Change from Baseline: −27.1 (17.3) %
Patients with BPH [2]; Day 14
  Mean post-void residual volume: decreased
Patients with BPH [2]; Day 42, all groups
  Number of patients with post-void residual volume decreased vs baseline: 33 patients
  Number of patients with post-void residual volume increased vs baseline: 17 patients
Patients with BPH [2]; Day 42
  Mean post-void residual volume: lower than the baseline value
[3]
  Degarelix Cmax and AUC values: higher Cmax and AUC values
Patients with BPH [4]; Day 42, all groups
  Number of patients with maximal urinary flow decreased vs baseline: 25 patients
  Number of patients with maximal urinary flow increased vs baseline: 24 patients
  Number of patients with maximal urinary flow unchanged vs baseline: 1 patient
Patients with BPH [4]; [10]
  Number of patients with decreased uroflow: 17
  Number of patients with increased uroflow: 20
Patients with BPH [4]; 32 mg group
  Mean maximal urinary flow: 11.7 mL/s
Patients with BPH [4]; 64 mg group
  Mean maximal urinary flow: 9.1 mL/s
Patients with BPH [4]; 16+16 mg group
  Mean maximal urinary flow: 10.0 mL/s
Patients with BPH [4]; 32+32 mg group
  Mean maximal urinary flow: 9.7 mL/s
Patients with BPH [5]; 32 mg dose, 28 and 42 day timepoints (FIG. 1c)
  IPSS Q1 (incomplete emptying), Q2 (frequency), Q4 (urgency) score, change from baseline: pronounced effect
Patients with BPH [5]; 32 mg group (FIG. 1b)
  Improvements in mean sum of IPSS scores: still indicated
Patients with BPH [5]; 32+32 mg group (FIG. 1b)
  Improvements in mean sum of IPSS scores: still indicated
Patients with BPH [5]; 32 mg group, n=7
  Mean IPSS score: 22.0 (n = 7)
Patients with BPH [5]; 64 mg group, n=4
  Mean IPSS score: 20.0 (n = 4)
